# Test results taken from patent US20250325687A1, “CONJUGATE COMPRISING TOLL-LIKE RECEPTOR AGONIST” (MABSOFT THERAPEUTICS (SHANGHAI) CO., LTD., priority 2022, published 2025).
# Where two headings read alike, the source gives them in different places.
# Legend:
# Assay type in all cases: cell-based
# [1] = target: T1, hTLR7 (human Toll-like receptor 7) (Homo sapiens, UniProt Q9NYK1); test: hTLR7 cell assay (HEK-Blue hTLR7 reporter cells); details: 24 hours, OD 650 nm
# T1 construct: host or cells: HEK-Blue hTLR7 (HEK293-derived reporter cells)
# T1 sequence (Q9NYK1 27-1049): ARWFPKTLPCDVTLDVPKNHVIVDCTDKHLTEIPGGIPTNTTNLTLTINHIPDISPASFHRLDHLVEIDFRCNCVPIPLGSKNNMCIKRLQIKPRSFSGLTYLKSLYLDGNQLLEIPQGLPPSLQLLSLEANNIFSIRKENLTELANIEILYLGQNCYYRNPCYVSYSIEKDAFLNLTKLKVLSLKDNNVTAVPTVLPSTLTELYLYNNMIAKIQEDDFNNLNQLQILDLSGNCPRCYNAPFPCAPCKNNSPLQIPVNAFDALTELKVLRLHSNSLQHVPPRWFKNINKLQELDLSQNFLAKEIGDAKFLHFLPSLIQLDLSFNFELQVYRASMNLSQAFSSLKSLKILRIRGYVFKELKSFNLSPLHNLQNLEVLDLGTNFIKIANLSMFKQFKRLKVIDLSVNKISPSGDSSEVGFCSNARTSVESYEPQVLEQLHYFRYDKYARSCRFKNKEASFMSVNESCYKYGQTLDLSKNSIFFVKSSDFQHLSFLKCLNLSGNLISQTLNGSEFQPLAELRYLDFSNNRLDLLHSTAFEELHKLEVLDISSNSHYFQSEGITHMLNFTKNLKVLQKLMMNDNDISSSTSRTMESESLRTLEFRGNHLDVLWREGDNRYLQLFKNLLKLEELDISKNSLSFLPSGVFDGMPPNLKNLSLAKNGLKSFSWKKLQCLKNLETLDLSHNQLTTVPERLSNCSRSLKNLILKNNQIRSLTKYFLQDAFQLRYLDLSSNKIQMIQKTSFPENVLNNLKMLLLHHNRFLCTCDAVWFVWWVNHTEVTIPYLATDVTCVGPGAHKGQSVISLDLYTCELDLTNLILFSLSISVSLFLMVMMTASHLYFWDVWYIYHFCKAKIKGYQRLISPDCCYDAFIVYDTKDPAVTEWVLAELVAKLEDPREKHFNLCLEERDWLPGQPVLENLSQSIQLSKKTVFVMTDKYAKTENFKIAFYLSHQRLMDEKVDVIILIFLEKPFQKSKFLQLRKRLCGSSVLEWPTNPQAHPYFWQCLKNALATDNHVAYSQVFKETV
# Method in brief: (§1)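 HEK-Blue reporter cells in HEK-Blue Detection medium (50000 cells/mL) were exposed to test compounds for 24 hours at 37° C, 5% CO2. Agonism was read from supernatant incubated 1 hour at 37° C with QUANTI-Blue, measured as optical density at 650 nm.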
# [2] = target: T2, hTLR8 (human Toll-like receptor 8) (Homo sapiens, UniProt Q9NR97); test: hTLR8 cell assay (HEK-Blue hTLR8 reporter cells); details: 24 hours, OD 650 nm
# T2 construct: host or cells: HEK-Blue hTLR8 (HEK293-derived reporter cells)
# T2 sequence (Q9NR97 27-1041): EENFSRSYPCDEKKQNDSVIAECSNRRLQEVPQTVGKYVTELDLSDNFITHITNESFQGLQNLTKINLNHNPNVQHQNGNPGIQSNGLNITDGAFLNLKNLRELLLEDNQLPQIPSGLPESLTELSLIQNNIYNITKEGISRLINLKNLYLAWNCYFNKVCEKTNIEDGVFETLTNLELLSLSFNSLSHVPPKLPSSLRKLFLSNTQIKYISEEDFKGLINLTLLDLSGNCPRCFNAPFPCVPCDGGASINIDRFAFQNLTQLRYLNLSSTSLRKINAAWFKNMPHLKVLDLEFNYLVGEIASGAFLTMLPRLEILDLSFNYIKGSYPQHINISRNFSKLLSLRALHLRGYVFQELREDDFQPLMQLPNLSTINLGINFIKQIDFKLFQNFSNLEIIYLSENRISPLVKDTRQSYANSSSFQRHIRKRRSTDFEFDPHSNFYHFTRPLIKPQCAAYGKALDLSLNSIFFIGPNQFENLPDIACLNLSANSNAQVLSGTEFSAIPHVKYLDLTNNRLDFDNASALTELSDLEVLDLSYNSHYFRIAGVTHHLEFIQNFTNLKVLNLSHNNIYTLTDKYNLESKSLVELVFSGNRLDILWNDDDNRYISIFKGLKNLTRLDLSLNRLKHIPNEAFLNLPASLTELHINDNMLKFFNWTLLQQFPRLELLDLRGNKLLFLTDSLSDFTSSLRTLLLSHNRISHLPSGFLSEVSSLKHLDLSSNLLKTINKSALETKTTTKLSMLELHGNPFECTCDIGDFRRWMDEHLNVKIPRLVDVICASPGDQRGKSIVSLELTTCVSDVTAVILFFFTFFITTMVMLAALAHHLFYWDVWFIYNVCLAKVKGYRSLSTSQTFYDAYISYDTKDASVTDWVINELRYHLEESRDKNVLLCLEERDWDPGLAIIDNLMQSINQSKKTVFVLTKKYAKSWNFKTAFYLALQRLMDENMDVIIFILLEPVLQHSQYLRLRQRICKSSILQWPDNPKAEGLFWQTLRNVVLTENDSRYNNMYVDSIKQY
# Method in brief: as §1
# [3] = test system: human PBMC (human peripheral blood mononuclear cells); test: PBMC screening assay: induction of TNF-α production; details: read-out: EC50 (μM) TNF-α (hPBMC)
# Procedure: The payload compounds of Formula (II′) were assayed to evaluate the induction of TNF-α production in human PBMC (human peripheral blood mononuclear cells).
# Human peripheral blood mononuclear cells (PBMC) were obtained from Allcells. […] PBMC were incubated for 24 hours at 37° C. in a 5% CO2 humidified incubator. The following day PBMC plates were centrifuged at 500×g for 5 minutes and the growth media was removed. 200 μL of compound prepared in growth media at a series of diluted concentrations ranging from 2.54 nM to 50 μM were added to PBMC in duplicate and incubated for 24 hours at 37° C. in a 5% CO2 incubator. Prior to supernatant harvest, cells were spun at 500×g for 5 minutes to remove cell debris. TNF-α activity was assessed in the supernatant by ELISA (Elabscience) per the manufacturer's instructions. Optical density at 450 nm (ELISA) was analyzed using a plate reader.
# [4] = human PBMC, 24 hours, TNF-α by ELISA, class symbols
EC50 [1] [µM],EC50 [2] [µM],Compound,"EC50 [3, 4] [µM]","EC50 ([3]; Homo sapiens, PBMC, 24 h) [µM]"
< 1,< 5,"CCCCc1nc2c(N)nc3cc(Cc4ccc(C(C)(C)CN)cc4)ccc3c2n1CC(C)(C)O [Compound 70, 1-(4-amino-7-(4-(1-amino-2-methylpropan-2-yl)benzyl)-2-butyl-1H-imidazo[4,5-c]quinolin-1-yl)-2-methylpropan-2-ol]",< 0.64,
< 1,< 5,"CCCCc1nc2c(N)nc3cc(Cc4ccc(F)c(CN)c4)ccc3c2n1CC(C)(C)O [Compound 68, 1-(4-amino-7-(3-(aminomethyl)-4-fluorobenzyl)-2-butyl-1H-imidazo[4,5-c]quinolin-1-yl)-2-methylpropan-2-ol]",< 0.64,
< 1,< 5,"CCCCc1nc2c(N)nc3cc(Cc4ccc5c(c4)CCNC5)ccc3c2n1CC(C)(C)O [Compound 59, 1-(4-amino-2-butyl-7-((1,2,3,4-tetrahydroisoquinolin-6-yl)methyl)-1H-imidazo[4,5-c]quinolin-1-yl)-2-methylpropan-2-ol]",< 0.64,
< 1,< 5,"CCCCc1nc2c(N)nc3cc(Cc4cccc(N5CCNCC5)c4)ccc3c2n1CC(C)(C)O [Compound 63, 1-(4-amino-2-butyl-7-(3-(piperazin-1-yl)benzyl)-1H-imidazo[4,5-c]quinolin-1-yl)-2-methylpropan-2-ol]",< 0.64,
< 1,< 5,"CCCCc1nc2c(N)nc3cc(Cc4ccc5c(c4)CC(N)CC5)ccc3c2n1CC(C)(C)O (stereo not drawn) [Compound 58, 1-(4-amino-7-((7-amino-5,6,7,8-tetrahydronaphthalen-2-yl)methyl)-2-butyl-1H-imidazo[4,5-c]quinolin-1-yl)-2-methylpropan-2-ol]",< 0.64,
< 1,< 5,"CCCCc1nc2c(N)nc3cc(Cc4cccc(CNC)c4)ccc3c2n1CC(C)(C)O [Compound 20, 1-(4-amino-2-butyl-7-(3-((methylamino)methyl)benzyl)-1H-imidazo[4,5-c]quinolin-1-yl)-2-methylpropan-2-ol]",< 0.64,
< 1,< 5,"CCCCc1nc2c(N)nc3cc(Cc4ccc(CN)s4)ccc3c2n1CC(C)(C)O [Compound 69, 1-(4-amino-7-((5-(aminomethyl)thiophen-2-yl)methyl)-2-butyl-1H-imidazo[4,5-c]quinolin-1-yl)-2-methylpropan-2-ol]",< 0.64,

# Further lines, the compound ahead of its results:
Compound,EC50 [1] [µM],EC50 [2] [µM],"EC50 [3, 4] [µM]","EC50 ([3]; Homo sapiens, PBMC, 24 h) [µM]"
"CCOCc1nc2c(N)nc3cc(Cc4cccc(CNC(=O)CN)c4)ccc3c2n1CC(C)(C)O [Compound 150, 2-amino-N-(3-((4-amino-2-(ethoxymethyl)-1-(2-hydroxy-2-methylpropyl)-1H-imidazo[4,5-c]quinolin-7-yl)methyl)benzyl)acetamide]",1 to 10,< 5,< 0.64,
"CCOCc1nc2c(N)nc3cc(Cc4ccc(CCCN)cc4)ccc3c2n1CC(C)(C)O [Compound 3, 1-(4-amino-7-(4-(3-aminopropyl)benzyl)-2-(ethoxymethyl)-1H-imidazo[4,5-c]quinolin-1-yl)-2-methylpropan-2-ol]",1 to 10,5 to 20,,> 0.64
"CCOCc1nc2c(N)nc3cc(Cc4cccc(C(=O)NCCN)c4)ccc3c2n1CC(C)(C)O [Compound 151, 3-((4-amino-2-(ethoxymethyl)-1-(2-hydroxy-2-methylpropyl)-1H-imidazo[4,5-c]quinolin-7-yl)methyl)-N-(2-aminoethyl)benzamide]",1 to 10,< 5,< 0.64,
"CCCCc1nc2c(N)nc3cc(Cc4cc(CN)ccc4F)ccc3c2n1CC(C)(C)O [Compound 67, 1-(4-amino-7-(5-(aminomethyl)-2-fluorobenzyl)-2-butyl-1H-imidazo[4,5-c]quinolin-1-yl)-2-methylpropan-2-ol]",< 1,< 5,< 0.64,
"CC(C)(O)Cn1c(COCC(F)(F)F)nc2c(N)nc3cc(Cc4cccc(CN)c4)ccc3c21 [Compound 53, 1-(4-amino-7-(3-(aminomethyl)benzyl)-2-((2,2,2-trifluoroethoxy)methyl)-1H-imidazo[4,5-c]quinolin-1-yl)-2-methylpropan-2-ol]",< 1,< 5,< 0.64,
"CCCCc1nc2c(N)nc3cc(Cc4ccc5c(c4)CNCC5)ccc3c2n1CC(C)(C)O [Compound 60, 1-(4-amino-2-butyl-7-((1,2,3,4-tetrahydroisoquinolin-7-yl)methyl)-1H-imidazo[4,5-c]quinolin-1-yl)-2-methylpropan-2-ol]",< 1,< 5,< 0.64,
CCOCc1nc2c(N)nc3cc(Cc4ccccc4)ccc3c2n1CC1(OCCN)CC1 [Compound 44],1 to 10,< 5,,> 0.64
"CCCCc1nc2c(N)nc3cc(Cc4cccc(NC(=O)CN)c4)ccc3c2n1CC(C)(C)O [Compound 65, 2-amino-N-(3-((4-amino-2-butyl-1-(2-hydroxy-2-methylpropyl)-1H-imidazo[4,5-c]quinolin-7-yl)methyl)phenyl)acetamide]",1 to 10,< 5,< 0.64,
"CCC[C@@H](C)c1nc2c(N)nc3cc(Cc4ccc(CCN)cc4)ccc3c2n1CC(C)(C)O [Compound 9, (R)-1-(4-amino-7-(4-(2-aminoethyl)benzyl)-2-(pentan-2-yl)-1H-imidazo[4,5-c]quinolin-1-yl)-2-methylpropan-2-ol]",> 10,> 20,,< 0.64
"CCCCc1nc2c(N)nc3cc(Cc4ccc5c(c4)C(N)CCC5)ccc3c2n1CC(C)(C)O (stereo not drawn) [Compound 57, 1-(4-amino-7-((8-amino-5,6,7,8-tetrahydronaphthalen-2-yl)methyl)-2-butyl-1H-imidazo[4,5-c]quinolin-1-yl)-2-methylpropan-2-ol]",< 1,< 5,,< 0.64
